Test results as given in ChEMBL document CHEMBL1127439, “Structure-activity relationship studies of central nervous system agents. 13. 4-[3-(Benzotriazol-1-yl)propyl]-1-(2-methoxyphenyl)piperazine, a new putative 5-HT1A receptor antagonist, and its analogs” (J Med Chem, 1994).
pKi: −log10 of the molar value.

Columns and labels:
Rattus norvegicus [1] = organism: Rattus norvegicus; experiment: Selectivity is the ratio between Ki values of 5-HT2 and 5-HT1A
[2] = target: Serotonin 2 (5-HT2) receptor (Rattus norvegicus, UniProt P30994+P08909+P14842); experiment: Tested in vitro for receptor binding affinity against 5-hydroxytryptamine 2 receptor using radioligand [3H]ketanserin; format: protein assay
[3] = target: T1, 5-hydroxytryptamine receptor 1A (Rattus norvegicus, UniProt P19327); experiment: Tested in vitro for receptor binding affinity against 5-hydroxytryptamine 1A receptor using radioligand [3H]8-OH-DPAT
T1 sequence (P19327 whole entry): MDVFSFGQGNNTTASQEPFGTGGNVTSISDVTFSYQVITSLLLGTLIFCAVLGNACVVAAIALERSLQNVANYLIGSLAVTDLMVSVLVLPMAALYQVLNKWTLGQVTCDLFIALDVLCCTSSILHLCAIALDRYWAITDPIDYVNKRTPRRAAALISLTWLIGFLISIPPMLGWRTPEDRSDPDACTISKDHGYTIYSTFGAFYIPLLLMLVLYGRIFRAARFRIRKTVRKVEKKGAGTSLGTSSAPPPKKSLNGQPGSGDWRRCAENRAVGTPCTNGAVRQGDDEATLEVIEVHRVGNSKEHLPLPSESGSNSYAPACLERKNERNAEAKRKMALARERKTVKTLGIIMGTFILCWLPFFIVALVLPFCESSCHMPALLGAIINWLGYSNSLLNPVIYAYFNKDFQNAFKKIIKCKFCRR

Mus musculus [4] = experiment: Effect on 8-OH-DPAT-induced hypothermia in mice (5 mg/kg) at intraperitoneal dosage of 10 mg/kg of compound after 60 mins; format: functional
Rattus norvegicus [5] = experiment: Tested for the effect on 8-OH-DPAT-induced behavior in reserpine pretreated rat against flat body posture at dosage of 10 mg/kg; format: functional
Mus musculus [6] = experiment: Effect on 8-OH-DPAT-induced hypothermia in mice (5 mg/kg) at intraperitoneal dosage of 10 mg/kg of compound after 45 mins.; format: functional
Rattus norvegicus [7] = experiment: Tested for the effect on 8-OH-DPAT-induced behavior in reserpine pretreated rat against forepaw treading at dosage of 10 mg/kg; format: functional
Mus musculus [8] = experiment: Effect on body temperature in mice at intraperitoneal dosage of 10 mg/kg, (compound administered 30 min before the test) after 45 min; format: functional
Mus musculus [9] = experiment: Effect on 8-OH-DPAT-induced hypothermia in mice (5 mg/kg) at intraperitoneal dosage of 10 mg/kg of compound after 30 mins; format: functional
Rattus norvegicus [10] = experiment: Tested for the induction of lower lip retraction (LLR) by the investigated compounds in rat at dosage of 10 mg/kg; format: functional
Mus musculus [11] = experiment: Effect on 8-OH-DPAT-induced hypothermia in mice (5 mg/kg) at intraperitoneal dosage of 10 mg/kg of compound after 15 mins; format: functional
Mus musculus [12] = experiment: Effect on body temperature in mice at intraperitoneal dosage of 10 mg/kg, (compound administered 30 min before the test) after 30 min; format: functional
Mus musculus [13] = experiment: Effect on body temperature in mice at intraperitoneal dosage of 10 mg/kg, (compound administered 30 min before the test) after 60 min; format: functional
Rattus norvegicus [14] = experiment: Tested for the effect on 8-OH-DPAT-induced lower lip retraction (LLR) in rat at dosage of 10 mg/kg; format: functional
Mus musculus [15] = experiment: Effect on body temperature in mice at intraperitoneal dosage of 8 mg/kg, (compound administered 30 min before the test) after 90 min; format: functional
Mus musculus [16] = experiment: Effect on 8-OH-DPAT-induced hypothermia in mice (5 mg/kg) at intraperitoneal dosage of 8 mg/kg of compound after 30 mins; format: functional
Rattus norvegicus [17] = experiment: Tested for the effect on 8-OH-DPAT-induced lower lip retraction (LLR) in rat at dosage of 2 mg/kg; format: functional
Mus musculus [18] = experiment: Effect on body temperature in mice at intraperitoneal dosage of 16 mg/kg, (compound administered 30 min before the test) after 30 min; format: functional
Rattus norvegicus [19] = experiment: Tested for the effect on 8-OH-DPAT-induced behavior in reserpine pretreated rat against flat body posture at dosage of 8 mg/kg; format: functional
Mus musculus [20] = experiment: Effect on 8-OH-DPAT-induced hypothermia in mice (5 mg/kg) at intraperitoneal dosage of 4 mg/kg of compound after 60 mins; format: functional
Mus musculus [21] = experiment: Effect on 8-OH-DPAT-induced hypothermia in mice (5 mg/kg) at intraperitoneal dosage of 16 mg/kg of compound after 45 mins; format: functional
Rattus norvegicus [22] = experiment: Tested for the effect on 8-OH-DPAT-induced behavior in reserpine pretreated rat against flat body posture at dosage of 4 mg/kg; format: functional
Mus musculus [23] = experiment: Effect on body temperature in mice at intraperitoneal dosage of 16 mg/kg, (compound administered 30 min before the test) after 75 min; format: functional
Rattus norvegicus [24] = experiment: Tested for the effect on 8-OH-DPAT-induced behavior in reserpine pretreated rat against forepaw treading at dosage of 16 mg/kg; format: functional
Rattus norvegicus [25] = experiment: Tested for the effect on 8-OH-DPAT-induced behavior in reserpine pretreated rat against forepaw treading at dosage of 8 mg/kg; format: functional
Rattus norvegicus [26] = experiment: Tested for the induction of lower lip retraction (LLR) by the investigated compounds in rat at dosage of 16 mg/kg; format: functional
Rattus norvegicus [27] = experiment: Tested for the effect on 8-OH-DPAT-induced lower lip retraction (LLR) in rat at dosage of 4 mg/kg; format: functional
Mus musculus [28] = experiment: Effect on 8-OH-DPAT-induced hypothermia in mice (5 mg/kg) at intraperitoneal dosage of 8 mg/kg of compound after 15 mins; format: functional
Mus musculus [29] = experiment: Effect on body temperature in mice at intraperitoneal dosage of 8 mg/kg, (compound administered 30 min before the test) after 45 min; format: functional
Rattus norvegicus [30] = experiment: Tested for the induction of lower lip retraction (LLR) by the investigated compounds in rat at dosage of 8 mg/kg; format: functional
Mus musculus [31] = experiment: Effect on body temperature in mice at intraperitoneal dosage of 16 mg/kg, (compound administered 30 min before the test) after 90 min; format: functional
Mus musculus [32] = experiment: Effect on 8-OH-DPAT-induced hypothermia in mice (5 mg/kg) at intraperitoneal dosage of 8 mg/kg of compound after 45 mins; format: functional
Rattus norvegicus [33] = experiment: Tested for the effect on 8-OH-DPAT-induced lower lip retraction (LLR) in rat at dosage of 16 mg/kg; format: functional
Mus musculus [34] = experiment: Effect on body temperature in mice at intraperitoneal dosage of 8 mg/kg, (compound administered 30 min before the test) after 75 min; format: functional
Mus musculus [35] = experiment: Effect on body temperature in mice at intraperitoneal dosage of 16 mg/kg, (compound administered 30 min before the test) after 60 min; format: functional
Mus musculus [36] = experiment: Effect on 8-OH-DPAT-induced hypothermia in mice (5 mg/kg) at intraperitoneal dosage of 16 mg/kg of compound after 60 mins; format: functional
Rattus norvegicus [37] = experiment: Tested for the effect on 8-OH-DPAT-induced behavior in reserpine pretreated rat against forepaw treading at dosage of 4 mg/kg; format: functional
Mus musculus [38] = experiment: Effect on body temperature in mice at intraperitoneal dosage of 8 mg/kg, (compound administered 30 min before the test) after 30 min; format: functional
Mus musculus [39] = experiment: Effect on body temperature in mice at intraperitoneal dosage of 4 mg/kg, (compound administered 30 min before the test) after 30 min; format: functional
Mus musculus [40] = experiment: Effect on body temperature in mice at intraperitoneal dosage of 4 mg/kg, (compound administered 30 min before the test) after 90 min; format: functional
Mus musculus [41] = experiment: Effect on 8-OH-DPAT-induced hypothermia in mice (5 mg/kg) at intraperitoneal dosage of 8 mg/kg of compound after 60 mins; format: functional
Mus musculus [42] = experiment: Effect on body temperature in mice at intraperitoneal dosage of 4 mg/kg, (compound administered 30 min before the test) after 75 min; format: functional
Rattus norvegicus [43] = experiment: Tested for the induction of lower lip retraction (LLR) by the investigated compounds in rat at dosage of 4 mg/kg; format: functional
Mus musculus [44] = experiment: effect on body temperature in mice at intraperitoneal dosage of 16 mg/kg, (compound administered 30 min before the test) after 45 min; format: functional
Mus musculus [45] = experiment: Effect on 8-OH-DPAT-induced hypothermia in mice (5 mg/kg) at intraperitoneal dosage of 16 mg/kg of compound after 15 mins; format: functional
Rattus norvegicus [46] = experiment: Tested for the effect on 8-OH-DPAT-induced lower lip retraction (LLR) in rat at dosage of 8 mg/kg; format: functional
Mus musculus [47] = experiment: Effect on body temperature in mice at intraperitoneal dosage of 8 mg/kg, (compound administered 30 min before the test) after 60 min; format: functional
Rattus norvegicus [48] = experiment: Tested for the effect on 8-OH-DPAT-induced behavior in reserpine pretreated rat against flat body posture at dosage of 16 mg/kg; format: functional
Mus musculus [49] = experiment: Effect on 8-OH-DPAT-induced hypothermia in mice (5 mg/kg) at intraperitoneal dosage of 16 mg/kg of compound after 30 mins; format: functional
Mus musculus [50] = experiment: Effect on body temperature in mice at intraperitoneal dosage of 4 mg/kg, (compound administered 30 min before the test) after 60 min; format: functional
Mus musculus [51] = experiment: Effect on body temperature in mice at intraperitoneal dosage of 4 mg/kg, (compound administered 30 min before the test) after 45 min; format: functional
Rattus norvegicus [52] = experiment: Tested for the induction of lower lip retraction (LLR) by the investigated compounds in rat at dosage of 2 mg/kg; format: functional
Mus musculus [53] = experiment: Effect on 8-OH-DPAT-induced hypothermia in mice (5 mg/kg) at intraperitoneal dosage of 4 mg/kg of compound after 15 mins; format: functional
Mus musculus [54] = experiment: Effect on 8-OH-DPAT-induced hypothermia in mice (5 mg/kg) at intraperitoneal dosage of 4 mg/kg of compound after 45 mins; format: functional
Mus musculus [55] = experiment: Effect on 8-OH-DPAT-induced hypothermia in mice (5 mg/kg) at intraperitoneal dosage of 4 mg/kg of compound after 30 mins; format: functional

## COc1ccccc1N1CCN(CCn2nc3ccccc3n2)CC1
Rattus norvegicus [1]
  Selectivity: 43
[2]
  Ki: 1.76 µM
[3]
  pKi: 7.39

## COc1ccccc1N1CCN(C[C@@H](C(=O)NC(C)(C)C)c2ccccc2)CC1
Mus musculus [4]
  Delta t: 0.1 °C
Rattus norvegicus [5]
  Behavioral score: 9.7
Mus musculus [6]
  Delta t: 0.3 °C
Rattus norvegicus [7]
  Behavioral score: 1
Mus musculus [8]
  Delta t: 0.2 °C
Mus musculus [9]
  Delta t: 0 °C
Rattus norvegicus [10]
  LLR score: 0.1
Mus musculus [11]
  Delta t: 0.2 °C
Mus musculus [12]
  Delta t: 0.2 °C
Mus musculus [13]
  Delta t: 0.2 °C
Rattus norvegicus [14]
  LLR score: 0.8

## CCCCN1CCN(c2ccccc2OC)CC1
Rattus norvegicus [1]
  Selectivity: 40
[2]
  Ki: 2.28 µM
[3]
  pKi: 7.24

## COc1ccccc1N1CCN(CCn2nnc3ccccc32)CC1
Rattus norvegicus [1]
  Selectivity: 39
[2]
  Ki: 1.62 µM
[3]
  pKi: 7.38

## CCN1CCN(c2ccccc2OC)CC1
Rattus norvegicus [1]
  Selectivity: 15
[2]
  Ki: 3.12 µM
[3]
  pKi: 6.69

## CCCN1CCN(c2ccccc2OC)CC1
Rattus norvegicus [1]
  Selectivity: 13
[2]
  Ki: 3.29 µM

## COc1ccccc1N1CCN(CCCn2nc3ccccc3n2)CC1
Mus musculus [15]
  Delta t: 0.3 °C
Mus musculus [16]
  Delta t: 1.5 °C
Rattus norvegicus [17]
  LLR score: 2.3
Mus musculus [18]
  Delta t: 0.2 °C
Rattus norvegicus [19]
  Behavioral score: 11.8
Mus musculus [20]
  Delta t: 0.6 °C
Mus musculus [21]
  Delta t: 1.3 °C
Rattus norvegicus [1]
  Selectivity: 66
Rattus norvegicus [22]
  Behavioral score: 13.8
Mus musculus [23]
  Delta t: 0.4 °C
Rattus norvegicus [24]
  Behavioral score: 4
Rattus norvegicus [25]
  Behavioral score: 4.8
Rattus norvegicus [26]
  LLR score: 0.3
Rattus norvegicus [27]
  LLR score: 1.8
Mus musculus [28]
  Delta t: 2 °C
Mus musculus [29]
  Delta t: 0.2 °C
Rattus norvegicus [30]
  LLR score: 0.4
Mus musculus [31]
  Delta t: 0.2 °C
Mus musculus [32]
  Delta t: 0.9 °C
Rattus norvegicus [33]
  LLR score: 2.2
Mus musculus [34]
  Delta t: 0.3 °C
[2]
  Ki: 1.58 µM
Mus musculus [35]
  Delta t: 0.3 °C
Mus musculus [36]
  Delta t: 0.9 °C
[3]
  pKi: 7.62
Rattus norvegicus [37]
  Behavioral score: 8
Mus musculus [38]
  Delta t: 0.1 °C
Mus musculus [39]
  Delta t: 0.1 °C
Mus musculus [40]
  Delta t: 0.1 °C
Mus musculus [41]
  Delta t: 0.7 °C
Mus musculus [42]
  Delta t: 0.2 °C
Rattus norvegicus [43]
  LLR score: 0.2
Mus musculus [44]
  Delta t: 0.3 °C
Mus musculus [45]
  Delta t: 2.6 °C
Rattus norvegicus [46]
  LLR score: 1.8
Mus musculus [47]
  Delta t: 0.4 °C
Rattus norvegicus [48]
  Behavioral score: 12.4
Mus musculus [49]
  Delta t: 2 °C
Mus musculus [50]
  Delta t: 0.1 °C
Mus musculus [51]
  Delta t: 0.3 °C
Rattus norvegicus [52]
  LLR score: 0.2
Mus musculus [53]
  Delta t: 1.8 °C
Mus musculus [54]
  Delta t: 0.9 °C
Mus musculus [55]
  Delta t: 1.4 °C
